Experimental data taken from patent US20080063699A1, “Method of Administering Cationic Liposomes Comprising an Active Drug” (priority 2003, published 2008).
In brackets after ≈: the same amount, converted by molar mass. Several values for one entry are separate records, joined by “and”; a condition that tells them apart may be missing. Equal values may be shown once. Read-outs that look alike come from different tables or passages of the source.

Key:
[1] = tested on: Solid orthotopic L3.6pl pancreas tumor; test: Anti-tumor efficacy in combination with gemcitabine (100 mg/kg); settings: for final tumor volume compared to the control group: day 27, Gemzar 100 mg/kg i.p., MBT-0206/paclitaxel 5 mg/kg i.v.
Description: Tumor size of L3.6pI pancreatic tumors 19 days after start of treatment. Treatment with 10% trehalose, paclitaxel, MBT-0206, Gemzar (gemcitabine) and the combination of both MBT-0206 and Gemzar started 8 days after tumor cell inoculation. Gemzar was applied i.p. at a dose of 100 mg/kg bw twice a week (Mon, Thu). paclitaxel and MBT-0206 were applied i.v. on a Mon, Wed, Fri schedule at a paclitaxel dose of 5 mg/kg bw. The combination group received both MBT-0206 and Gemzar with the respective schedule. Tumors were measured by palpation with a calliper on day 23 and 27. Mean±SEM; n=9 per group.
Metastases at day 19 after start of treatment. Treatment with 10% trehalose, paclitaxel, MBT-0206, Gemzar (gemcitabine) and the combination of both MBT-0206 and Gemzar started at day 8 after tumor cell inoculation. Geinzar was applied i.p. at a dose of 100 mg/kg bw twice a week (Mon, Thu). paclitaxel and MBT-0206 were applied i.v. on a Mon, Wed, Fri schedule at a paclitaxel dose of 5 mg/kg bw. The combination group received both MBT-0206 and Gemzar with the respective schedule, n=9 per group.
Tumor volume palpated at day 23, 26 after inoculation and after harvesting
Necrospy after harvest at day 27

[2] = tested on: Solid orthotopic L3.6pl pancreas tumor; test: Anti-tumor efficacy in combination with gemcitabine (50 mg/kg); format: in vivo; settings: for tumor size: day 28 after tumor inoculation, after harvest
Source text: • Species: male Balb/c nu/nu mice • Tumor model: Solid orthotopic L3.6pI pancreas tumor (highly mestastatic; Bruns C J, Harbison M T, Kuniyasu H, Eue I, Fidler I J. In vivo selection and characterization of metastatic variants from human pancreatic adenocarcinoma by using orthotopic implantation in nude mice. Neoplasia 1999; 1(1):50-62.) • Supplier: Charles River France
Tumor volume palpated at day 10, 12, 14, 17, 19, 21, 24 after inoculation and at day 26, 28 after harvesting
Necrospy after harvest at day 26 and 28

[3] = tested on: drug-resistant human dermal melanoma line Sk-Mel28; test: Growth inhibitory assay (MTT, 72 h); format: cell-based; settings: SK-MEL-28, FIG. 10
Description: (§1) FIG. 10: Inhibitory Potential of paclitaxel against the drug-resistant human dermal melanoma line Sk-Mel28. The growth inhibitory assay was performed in 24-well plates with each drug concentration tested in duplicate (n=2 wells). 4×10^4 cells per well were seeded into a 24-well plate and incubated over night. The following day, 11 concentrations of the respective drug formulation were added for 72 h to cover the range depicted in the respective graphs. Finally, the cell viability was determined by a standard MTT-assay measuring the activity of mitochondrial dehydrogenases.
(§2) 2. […] In vivo, these cells were injected into SCID mice bearing human skin transplants between human skin transplant and mouse acceptor skin. Treatments were started on day 17 after tumor cell injection and extended to day 28 with doses (12.5 mg/kg b.w.) every second day. The therapeutic potential of MBT-0206 and paclitaxel were compared on day 7 after start of treatments (see table below). […] Upon treatment with MBT-0206, tumors only marginally grew to about 1/10 the size of paclitaxel (paclitaxel)-treated tumors.

[4] = tested on: moderatly drug-resistant uterus sarcoma line Mes-SA/Dx-5; test: Growth inhibitory assay (MTT, 72 h); format: cell-based, human
Description: as §1, with “3-5:” for “10: Inhibitory Potential of paclitaxel against the drug-resistant human dermal melanoma line Sk-Mel28.”, “10-11” for “11”, “mitochondrial-dehydrogenases.” for “mitochondrial dehydrogenases.”
(§3) The highly paclitaxel resistant derivative cell line Mes-SA/Dx-5MBT was selected with increasing paclitaxel concentrations from the commercially available line Mes-SA/Dx-5 (ATCC, {Harker, 1986 #29}).

[5] = tested on: drug-sensitive human uterus sarcoma line Mes-SA; test: Growth inhibitory assay (MTT, 72 h); format: cell-based; settings: FIG. 5
Description: as §1, with “3-5:” for “10: Inhibitory Potential of paclitaxel against the drug-resistant human dermal melanoma line Sk-Mel28.”, “10-11” for “11”, “mitochondrial-dehydrogenases.” for “mitochondrial dehydrogenases.”
as §1, with “The” for “FIG. 10: Inhibitory Potential of paclitaxel against the drug-resistant human dermal melanoma line Sk-Mel28. The”, “10-11” for “11”
as §3

[6] = tested on: parental drug-sensitive murine colon carcinoma line Colon-26; test: Growth inhibitory assay (MTT, 72 h); format: cell-based; settings: FIG. 7
Description: as §1, with “6-7:” for “10: Inhibitory Potential of paclitaxel against the drug-resistant human dermal melanoma line Sk-Mel28.”, “10-11” for “11”

[7] = tested on: highly drug-resistant murine colon carcinoma line Colon-26MBT; test: Growth inhibitory assay (MTT, 72 h); format: cell-based; settings: Mus musculus
Description: as §1, with “6-7:” for “10: Inhibitory Potential of paclitaxel against the drug-resistant human dermal melanoma line Sk-Mel28.”, “10-11” for “11”

[8] = tested on: Sk-Mel28 tumor; test: Paclitaxel-resistant melanoma model with human skin transplants in vivo; design: species or system SCID mice; settings: 12.5 mg/kg b.w. every second day
Description: as §2
Mes-SA/Dx-5MBT tumor model: tumor volumes on day 23 after start of treatment (9 treatments, i.e. 3 per week, from day 12 to day 31 after tumor cell injection) Sk-Mel tumor model: tumor volumes on day 7 after start of treatment (6 treatments very other day, i.e. from day 17 to day 28 after tumor cell injection).

[9] = tested on: highly drug-resistant uterus sarcoma line Mes-SA/Dx-5MBT; test: Growth inhibitory assay (MTT, 72 h); format: cell-based, human; settings: for IC50: Homo sapiens, MES-SA
Description: as §1, with “3-5:” for “10: Inhibitory Potential of paclitaxel against the drug-resistant human dermal melanoma line Sk-Mel28.”, “10-11” for “11”, “mitochondrial-dehydrogenases.” for “mitochondrial dehydrogenases.”
as §1, with “The” for “FIG. 10: Inhibitory Potential of paclitaxel against the drug-resistant human dermal melanoma line Sk-Mel28. The”, “10-11” for “11”
These cell lines were selected by stepwise increasing the concentration of paclitaxel in the culture medium.
as §3

Compound	final tumor volume compared to the control group [1] [%]	tumor size [2] [mm^3]	mortality at day 24 ([2]; n=9 per group, MBT-0206 5 mg/kg i.v., Gemzar 50 mg/kg i.p.) [animals dead]	IC50 [3] [µg/mL]	fold lower IC50 value than in Mes-SA/Dx-5MBT [4]	IC50 [5] [µg/mL]	sensitivity of the line for MBT-0206 and paclitaxel [6]	IC50 ([7]; FIG. 6, read-out: IC50) [µg/mL]	IC50 ([7]; read-out: IC50 (50% growth inhibition))	weight loss (body weight) ([1]; during the last 11 days) [%]	effect on tumor development [8]	IC50 (50% growth inhibition) ([9]; 72 h, MTT) [µg/mL]	fold increased paclitaxel tolerance compared to the parental line Mes-SA (by IC50 values) ([9]; FIG. 9) [fold]	IC50 ([9]; 72 h, MTT, read-out: IC50) [µg/mL]	IC50 ([9]; 72 h, MTT, read-out: IC50 (50% growth inhibition))
Nc1ccn([C@@H]2O[C@H](CO)[C@@H](O)C2(F)F)c(=O)n1 [Gemzar, gemcitabine]	47	398	1												
CC(=O)O[C@H]1C(=O)[C@@]2(C)[C@H]([C@H](OC(=O)c3ccccc3)[C@]3(O)C[C@H](OC(=O)[C@H](O)[C@@H](NC(=O)c4ccccc4)c4ccccc4)C(C)=C1C3(C)C)[C@]1(OC(C)=O)CO[C@@H]1C[C@@H]2O [paclitaxel]	68	536		5.8 (≈ 6.79 µM)	approximately 7 fold	0.0055 (≈ 0.00644 µM)	equally sensitive	~5 (≈ 5.86 µM)	~5 µM and ~5 µg/mL	2	completely ineffective	0.867 (≈ 1.02 µM)	~150	0.87 (≈ 1.02 µM)	~1 µM and ~0.867 µg/mL
